{
  "source": "paper PMC8400920",
  "about": "“Metabolism of Diterpenoids Derived from the Bark of Cinnamomum cassia in Human Liver Microsomes” (Pharmaceutics, 2021)",
  "key": {"[1]": {"system": "CYPs", "assay": "Metabolism of AHC in HLMs with SKF-525A, a nonselective CYP inhibitor", "format": "in vitro ADME, human", "conditions": "10 µM AHC, 1 mg/mL HLMs, NGS, 60 min, depending on SKF-525A concentration", "procedure": "To investigate CYP-mediated metabolism, 10 µM AHC was mixed with 1 mg/mL pooled HLMs and 0.1 M potassium phosphate buffer (pH 7.4). Then, SKF-525A, a general inhibitor of CYPs, was added at concentrations of 0.5, 1, and 5 mM. The reactions were initiated with the addition of NGS at […] for 60 min. After 60 min, the reactions were terminated by adding 400 µL of 100% acetonitrile. The mixtures were then centrifuged at 15,700× g for 10 min. Subsequently, 550 µL of supernatant was dried in a vacuum concentrator. The residue was dissolved in 100 µL of 20% MeOH (0.1% formic acid), and 5 µL of this sample was injected into a C18 column for LC–MS/MS analysis.\nTo confirm the metabolism of AHC by CYP enzymes, AHC was incubated in HLMs with SKF-525A, i.e., a nonspecific CYP inhibitor (Figure S7). […] Consequently, as the metabolism of AHC was inhibited by SKF-525A treatment, the production of all metabolites was reduced in an SKF-525A concentration-dependent manner."}, "[2]": {"biological_target": "T1, CYP2A6 (Homo sapiens, UniProt P11509)", "T1 construct": "purchased Corning Gentest", "T1 sequence (P11509 1-494)": "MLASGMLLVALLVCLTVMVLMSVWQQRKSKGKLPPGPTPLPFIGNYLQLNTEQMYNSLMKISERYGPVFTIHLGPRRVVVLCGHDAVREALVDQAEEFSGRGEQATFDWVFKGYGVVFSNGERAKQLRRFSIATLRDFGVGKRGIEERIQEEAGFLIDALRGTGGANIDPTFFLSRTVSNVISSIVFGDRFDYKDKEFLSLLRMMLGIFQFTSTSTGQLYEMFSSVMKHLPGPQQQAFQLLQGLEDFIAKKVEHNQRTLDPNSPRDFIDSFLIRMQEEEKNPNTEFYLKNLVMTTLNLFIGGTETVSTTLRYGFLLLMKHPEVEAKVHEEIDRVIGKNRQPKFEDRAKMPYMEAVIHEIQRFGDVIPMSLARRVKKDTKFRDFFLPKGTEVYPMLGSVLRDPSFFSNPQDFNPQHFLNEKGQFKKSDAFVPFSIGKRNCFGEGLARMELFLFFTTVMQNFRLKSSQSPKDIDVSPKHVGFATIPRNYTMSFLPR", "assay": "AHC metabolism by recombinant cDNA-expressed CYP isoform", "format": "in vitro ADME", "conditions": "10 µM AHC, 10 pmol recombinant CYP, NGS, 37 °C, 60 min", "procedure": "(§1) To identify the metabolic enzymes for AHC, 10 µM AHC was incubated with 10 pmol of human recombinant cDNA-expressed CYP isoforms (CYP1A1, 1A2, 2A6, 2B6, 2C8, 2C9, 2C19, 2D6, 2E1, 3A4, and 3A5) in the presence of 0.1 M potassium phosphate buffer (pH 7.4). The reaction was initiated by adding 100 µL of NGS at 37 °C for 60 min. Then, the mixture was suspended by adding 400 µL of ice-cold 100% ACN. Following centrifugation at 15,700× g for 10 min at 4 °C, the supernatant was transferred to a new tube and evaporated using a speed-vacuum concentrator. Next, the dried sample was diluted with 100 µL of 20% MeOH containing 0.1% formic acid, and a 5 µL aliquot was injected into a C18 column for LC–MS/MS analysis.\n(§2) To identify the CYP isoforms involved in AHC metabolism, AHC (10 µM) was incubated with eleven cDNA-expressed recombinant CYP isoforms (CYP1A1, CYP1A2, CYP2A6, CYP2B6, CYP2C8, CYP2C9, CYP2C19, CYP2D6, CYP2E1, CYP3A4, and CYP3A5) in the presence of the NGS. […] However, the metabolites of AHC were not observed from reactions with other CYPs. Thus, in the metabolism of AHC in HLMs, CYP3A4 was involved as the main enzyme, and four types of metabolites were generated."}, "[3]": {"biological_target": "T2, CYP2B6 (Homo sapiens, UniProt P20813)", "T2 construct": "purchased Corning Gentest", "T2 sequence (P20813 1-491)": "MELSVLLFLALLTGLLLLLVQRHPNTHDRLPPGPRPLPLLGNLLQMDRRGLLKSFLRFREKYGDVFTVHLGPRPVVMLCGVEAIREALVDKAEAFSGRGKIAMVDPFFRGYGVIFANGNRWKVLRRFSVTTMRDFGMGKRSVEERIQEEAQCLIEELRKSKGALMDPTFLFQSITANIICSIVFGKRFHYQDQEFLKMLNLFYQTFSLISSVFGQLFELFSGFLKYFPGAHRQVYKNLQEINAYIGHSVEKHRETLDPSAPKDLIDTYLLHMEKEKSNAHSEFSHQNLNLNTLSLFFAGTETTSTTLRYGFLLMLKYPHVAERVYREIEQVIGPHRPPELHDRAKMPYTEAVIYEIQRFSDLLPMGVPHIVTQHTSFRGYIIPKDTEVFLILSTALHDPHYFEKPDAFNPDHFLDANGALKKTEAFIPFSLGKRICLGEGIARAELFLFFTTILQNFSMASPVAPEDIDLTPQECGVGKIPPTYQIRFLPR", "assay": "AHC metabolism by recombinant cDNA-expressed CYP isoform", "format": "in vitro ADME", "conditions": "10 µM AHC, 10 pmol recombinant CYP, NGS, 37 °C, 60 min", "procedure": "as §1, §2"}, "[4]": {"biological_target": "T3, CYP2C19 (Homo sapiens, UniProt P33261)", "T3 construct": "purchased Corning Gentest", "T3 sequence (P33261 whole entry, canonical isoform)": "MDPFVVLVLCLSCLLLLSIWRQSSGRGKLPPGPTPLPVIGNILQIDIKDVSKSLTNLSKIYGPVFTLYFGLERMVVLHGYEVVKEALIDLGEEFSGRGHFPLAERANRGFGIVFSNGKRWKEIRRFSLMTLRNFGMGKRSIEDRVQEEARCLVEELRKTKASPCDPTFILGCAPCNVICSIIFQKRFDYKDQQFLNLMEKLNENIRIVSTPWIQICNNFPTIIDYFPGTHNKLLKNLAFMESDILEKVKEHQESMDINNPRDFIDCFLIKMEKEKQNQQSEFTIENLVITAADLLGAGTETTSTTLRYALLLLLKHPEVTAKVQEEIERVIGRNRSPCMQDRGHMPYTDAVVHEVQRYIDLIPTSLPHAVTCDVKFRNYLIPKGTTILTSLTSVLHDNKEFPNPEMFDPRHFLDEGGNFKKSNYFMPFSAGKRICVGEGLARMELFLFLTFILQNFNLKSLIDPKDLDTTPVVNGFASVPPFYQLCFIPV", "assay": "AHC metabolism by recombinant cDNA-expressed CYP isoform", "format": "in vitro ADME", "conditions": "10 µM AHC, 10 pmol recombinant CYP, NGS, 37 °C, 60 min", "procedure": "as §1, §2"}, "[5]": {"biological_target": "T4, CYP2C8 (Homo sapiens, UniProt P10632)", "T4 construct": "purchased Corning Gentest", "T4 sequence (P10632 1-490)": "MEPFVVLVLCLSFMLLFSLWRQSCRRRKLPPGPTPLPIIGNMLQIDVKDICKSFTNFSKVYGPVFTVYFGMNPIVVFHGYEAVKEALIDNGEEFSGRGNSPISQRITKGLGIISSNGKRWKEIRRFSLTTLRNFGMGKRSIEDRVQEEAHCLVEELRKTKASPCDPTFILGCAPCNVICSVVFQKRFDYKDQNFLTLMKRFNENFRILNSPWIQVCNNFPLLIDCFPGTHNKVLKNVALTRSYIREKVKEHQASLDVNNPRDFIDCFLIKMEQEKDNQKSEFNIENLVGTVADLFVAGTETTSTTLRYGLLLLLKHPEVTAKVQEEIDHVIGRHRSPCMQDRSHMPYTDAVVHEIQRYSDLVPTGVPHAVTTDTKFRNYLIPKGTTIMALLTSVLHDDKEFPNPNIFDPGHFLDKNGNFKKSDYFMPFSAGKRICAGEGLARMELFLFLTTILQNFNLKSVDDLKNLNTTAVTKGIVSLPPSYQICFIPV", "assay": "AHC metabolism by recombinant cDNA-expressed CYP isoform", "format": "in vitro ADME", "conditions": "10 µM AHC, 10 pmol recombinant CYP, NGS, 37 °C, 60 min", "procedure": "as §1, §2"}, "[6]": {"biological_target": "T5, CYP2E1 (Homo sapiens, UniProt P05181)", "T5 construct": "purchased Corning Gentest", "T5 sequence (P05181 whole entry, canonical isoform)": "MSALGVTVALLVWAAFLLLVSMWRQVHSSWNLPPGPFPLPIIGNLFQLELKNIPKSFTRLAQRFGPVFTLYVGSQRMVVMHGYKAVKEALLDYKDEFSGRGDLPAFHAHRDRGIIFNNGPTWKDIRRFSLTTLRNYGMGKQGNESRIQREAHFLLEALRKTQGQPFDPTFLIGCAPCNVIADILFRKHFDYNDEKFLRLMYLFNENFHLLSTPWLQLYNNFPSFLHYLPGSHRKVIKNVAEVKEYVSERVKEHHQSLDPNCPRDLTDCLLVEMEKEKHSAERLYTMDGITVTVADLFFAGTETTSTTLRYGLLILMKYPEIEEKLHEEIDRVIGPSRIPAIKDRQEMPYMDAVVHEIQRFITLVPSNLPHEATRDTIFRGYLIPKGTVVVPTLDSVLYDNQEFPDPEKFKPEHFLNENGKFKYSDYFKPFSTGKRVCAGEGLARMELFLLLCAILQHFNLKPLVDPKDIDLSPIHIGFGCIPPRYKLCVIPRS", "assay": "AHC metabolism by recombinant cDNA-expressed CYP isoform", "format": "in vitro ADME", "conditions": "10 µM AHC, 10 pmol recombinant CYP, NGS, 37 °C, 60 min", "procedure": "as §1, §2"}, "[7]": {"biological_target": "T6, CYP3A4 (Homo sapiens, UniProt P08684)", "T6 construct": "purchased Corning Gentest", "T6 sequence (P08684 whole entry, canonical isoform)": "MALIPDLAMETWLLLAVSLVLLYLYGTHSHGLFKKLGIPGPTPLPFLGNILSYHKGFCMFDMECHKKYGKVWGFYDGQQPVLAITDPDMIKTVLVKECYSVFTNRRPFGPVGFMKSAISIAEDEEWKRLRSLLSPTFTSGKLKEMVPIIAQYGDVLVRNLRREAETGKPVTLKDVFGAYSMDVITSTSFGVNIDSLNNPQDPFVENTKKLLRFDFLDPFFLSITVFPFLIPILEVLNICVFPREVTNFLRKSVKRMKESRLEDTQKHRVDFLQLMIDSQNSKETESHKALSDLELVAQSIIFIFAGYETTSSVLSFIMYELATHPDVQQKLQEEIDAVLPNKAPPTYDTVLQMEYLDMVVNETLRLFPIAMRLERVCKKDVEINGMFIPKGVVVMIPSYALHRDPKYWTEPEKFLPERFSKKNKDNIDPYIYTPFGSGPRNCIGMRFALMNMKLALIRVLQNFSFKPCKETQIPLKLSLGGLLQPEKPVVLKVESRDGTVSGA", "assay": "AHC metabolism by recombinant cDNA-expressed CYP isoform", "format": "in vitro ADME", "conditions": "10 µM AHC, 10 pmol recombinant CYP3A4, NGS, 37 °C, 60 min", "procedure": "as §1, §2"}},
  "note": "“Also recorded” adds a separate entry of the source.",
  "data": [
    {"smiles": "CC(=O)O[C@@H]1[C@@H](C)CC[C@]2(O)[C@]3(C)CC(=O)O[C@]12[C@@]1(O)C(C)=C(C(C)C)C[C@@]31O", "note": "[AHC, anhydrocinnzeylanine]", "values": [
      {"measurement": "residual amount of AHC after reaction with SKF-525A", "setting": "[1]", "value": "significantly increased"},
      {"measurement": "metabolites of AHC from reaction with CYP2A6", "setting": "[2]", "value": "not observed"},
      {"measurement": "metabolites of AHC from reaction with CYP2B6", "setting": "[3]", "value": "not observed"},
      {"measurement": "metabolites of AHC from reaction with CYP2C19", "setting": "[4]", "value": "not observed"},
      {"measurement": "metabolites of AHC from reaction with CYP2C8", "setting": "[5]", "value": "not observed"},
      {"measurement": "metabolites of AHC from reaction with CYP2E1", "setting": "[6]", "value": "not observed"},
      {"measurement": "metabolism of AHC by CYP3A4", "setting": "[7]", "value": "major CYP responsible for the metabolism of AHC; also recorded: predominantly metabolized by CYP3A4"}
    ]}
  ]
}
